Assay [1] relates to Unkräuter, wie z. B. Datura, Galium, Polygonum, Portulak, Sinapis und Solanum. In words: Post-emergence test (herbicidal action on weeds). It counts as in vivo. The following applies: post-emergence spray on test plants 5 - 15 cm high, 2000 l Wasser/ha, rated after three weeks as % Schädigung vs untreated control; result stated in comparison with Vergleichssubstanz (A). An excerpt:
(§1) Lösungsmittel: 5 Gewichtsteile Aceton Emulgator: 1 Gewichtsteil Alkylarylpolyglykolether
(§2) Zur Herstellung einer zweckmäßigen Wirkstoffzubereitung vermischt man 1 Gewichtsteil Wirkstoff mit der angegebenen Menge Lösungsmittel, gibt die angegebene Menge Emulgator zu und verdünnt das Konzentrat mit Wasser auf die gewünschte Konzentration. Mit der Wirkstoffzubereitung spritzt man Testpflanzen, welche eine Höhe von 5 - 15 cm haben so, daß die jeweils gewünschten Wirkstoffmengen pro Flächeneinheit ausgebracht werden. Die Konzentration der Spritzbrühe wird so gewählt, daß in 2000 l Wasser/ha die jeweils gewünschten Wirkstoffmengen ausgebracht werden. Nach drei Wochen wird der Schädigungsgrad der Pflanzen bonitiert in % Schädigung im Vergleich zur Entwicklung der unbehandelten Kontrolle.

In a further assay the test system is Weizen. In words: Post-emergence test (crop selectivity). The format is in vivo. The conditions noted are these: post-emergence spray, 2000 l Wasser/ha, rated after three weeks.
Source text: as §1, §2

Molecules are shown by their SMILES.

Take `CCOC(=O)C(C)(O)Cc1cc(Oc2c(Cl)cc(C(F)(F)F)cc2Cl)ccc1Cl` (stereo not shown) [Beispiel 6, 1-Hydroxy-1-methyl-2-(2-chlor-5-(2,6-dichlor-4-trifluormethyl-phenoxy)-phenyl)-propionsäure-ethylester]: in assay [1], the “Wirkung gegen Unkräuter” value was “erheblich stärkere Wirkung”. The “Selektivität in Weizen” value in the assay with Weizen was “guter Selektivität”.
Take `FC(F)(F)c1ccc(Oc2ccc(Cl)c(CBr)c2)c(Cl)c1` [Beispiel 1, 2-Chlor-5-(2-Chlor-4-trifluormethyl-phenoxy)-benzylbromid]: the “Wirkung gegen Unkräuter” value in assay [1] is “erheblich stärkere Wirkung”. Besides, the “Selektivität in Weizen” value in the assay on Weizen is reported as “guter Selektivität”.

For the origin of these results see patent EP0338306A2, “Halogen-substituted phenoxybenzyl compounds” (BAYER AG, priority 1988, dated 1989).
